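Test compounds were applied to cells in 96-well plates for 48 hours at 5 doses. GI50 is the concentration that inhibits growth by half.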 Activity calls are given as the source filed them. Rule as the data show it: active = GI50 up to about 1.1 µM and inactive = higher.
Key:
Assay in all cases: growth of human tumour cells (NCI), 48 h
[1] = tested on: TK-10
[2] = tested on: HCT-15
[3] = tested on: SNB-75
[4] = tested on: CAKI-1
[5] = tested on: SF-295
[6] = tested on: OVCAR-4
[7] = tested on: CCRF-CEM
[8] = tested on: 786-0
[9] = tested on: UO-31
[10] = tested on: HT-29
[11] = tested on: Malme-3M
[12] = tested on: SN12C
[13] = tested on: EKVX
[14] = tested on: HL-60
[15] = tested on: COLO 205
[16] = tested on: HCT-116

## COc1ccc(C[C@@H]2Cc3cc(OC)c(OC)cc3CN2C)cc1
[1]
  GI50: > 100 µM (inactive)
[2]
  GI50: > 100 µM
[3]
  GI50: > 100 µM (inactive)
[4]
  GI50: 59.7 µM (inactive)
[5]
  GI50: 57 µM (inactive)
[6]
  GI50: 76.4 µM (inactive)
[7]
  GI50: > 100 µM (inactive)
[8]
  GI50: > 100 µM (inactive)
[9]
  GI50: > 100 µM (inactive)
[10]
  GI50: > 100 µM (inactive)
[11]
  GI50: > 100 µM (inactive)
[12]
  GI50: > 100 µM (inactive)
[13]
  GI50: > 100 µM (inactive)

## CCOc1ccc(/N=N/c2ccc3oc(=O)c(/C(C)=N/NC(=O)CC(=O)Nc4cccc(OC)c4)cc3c2)cc1
[1]
  GI50: 28.3 µM (inactive)
[2]
  GI50: 30.3 µM
[14]
  GI50: 3.64 µM (inactive)
[5]
  GI50: 19 µM (inactive)
[6]
  GI50: 16.3 µM (inactive)
[15]
  GI50: 28.1 µM (inactive)
[7]
  GI50: 3.16 µM (inactive)
[8]
  GI50: 10.5 µM (inactive)
[9]
  GI50: 12.3 µM (inactive)
[11]
  GI50: 16.8 µM (inactive)
[12]
  GI50: 15.6 µM (inactive)
[13]
  GI50: 19.4 µM (inactive)
[16]
  GI50: 10.2 µM (inactive)

## O=S(=O)(OI(OI(OS(=O)(=O)C(F)(F)F)c1ccccc1)c1ccccc1)C(F)(F)F
[1]
  GI50: > 100 µM (inactive)
[2]
  GI50: > 100 µM
[3]
  GI50: 60.8 µM (inactive)
[14]
  GI50: 4.33 µM (inactive)
[4]
  GI50: 27.8 µM (inactive)
[5]
  GI50: 21.7 µM (inactive)
[15]
  GI50: 51.2 µM (inactive)
[7]
  GI50: 13.9 µM (inactive)
[8]
  GI50: 50.4 µM (inactive)
[9]
  GI50: 47.2 µM (inactive)
[11]
  GI50: 11.7 µM (inactive)
[12]
  GI50: 49.8 µM (inactive)
[13]
  GI50: 58.9 µM (inactive)
[16]
  GI50: 23.7 µM (inactive)

## Cc1ccc(C2=CC(=O)c3ccccc3C2=O)n1-c1ccccc1
[1]
  GI50: > 100 µM (inactive)
[3]
  GI50: > 100 µM (inactive)
[14]
  GI50: 32.8 µM (inactive)
[5]
  GI50: > 100 µM (inactive)
[6]
  GI50: 25.6 µM (inactive)
[15]
  GI50: > 100 µM (inactive)
[7]
  GI50: 23 µM (inactive)
[8]
  GI50: > 100 µM (inactive)
[10]
  GI50: > 100 µM (inactive)
[12]
  GI50: > 100 µM (inactive)
[13]
  GI50: > 100 µM (inactive)
[16]
  GI50: 62.1 µM (inactive)

## COC(=O)/C(C#N)=C1\CCC(C(=O)OC)N1C (stereo not given)
[1]
  GI50: > 100 µM (inactive)
[2]
  GI50: > 100 µM
[3]
  GI50: > 100 µM (inactive)
[14]
  GI50: > 100 µM (inactive)
[4]
  GI50: > 100 µM (inactive)
[5]
  GI50: > 100 µM (inactive)
[6]
  GI50: > 100 µM (inactive)
[15]
  GI50: > 100 µM (inactive)
[7]
  GI50: > 100 µM (inactive)
[8]
  GI50: > 100 µM (inactive)
[9]
  GI50: > 100 µM (inactive)
[12]
  GI50: > 100 µM (inactive)
[13]
  GI50: > 100 µM (inactive)
[16]
  GI50: > 100 µM (inactive)

## Cc1cccc(N2C(=O)C(=O)C(c3nc4ccccc4s3)/C(=N/NC(=S)NN)C2=O)c1C (stereo not given)
[1]
  GI50: > 100 µM (inactive)
[2]
  GI50: > 100 µM
[3]
  GI50: > 100 µM (inactive)
[4]
  GI50: > 100 µM (inactive)
[5]
  GI50: > 100 µM (inactive)
[6]
  GI50: > 100 µM (inactive)
[15]
  GI50: > 100 µM (inactive)
[8]
  GI50: > 100 µM (inactive)
[9]
  GI50: > 100 µM (inactive)
[11]
  GI50: > 100 µM (inactive)
[12]
  GI50: > 100 µM (inactive)
[13]
  GI50: > 100 µM (inactive)
[16]
  GI50: > 100 µM (inactive)

## CN(C)/N=N/c1ccc(S(N)(=O)=O)cc1
[1]
  GI50: > 100 µM (inactive)
[2]
  GI50: > 100 µM
[3]
  GI50: 92.9 µM (inactive)
[4]
  GI50: > 100 µM (inactive)
[5]
  GI50: > 100 µM (inactive)
[6]
  GI50: > 100 µM (inactive)
[15]
  GI50: > 100 µM (inactive)
[7]
  GI50: 6.43 µM (inactive)
[8]
  GI50: > 100 µM (inactive)
[9]
  GI50: > 100 µM (inactive)
[10]
  GI50: > 100 µM (inactive)
[11]
  GI50: > 100 µM (inactive)
[12]
  GI50: > 100 µM (inactive)
[13]
  GI50: > 100 µM (inactive)
[16]
  GI50: > 100 µM (inactive)

## COc1cc2ccn3c4cc(OC)c(OC)cc4cc3c2cc1OC
[1]
  GI50: > 100 µM (inactive)
[3]
  GI50: > 100 µM (inactive)
[14]
  GI50: 4.83 µM (inactive)
[4]
  GI50: 29.6 µM (inactive)
[5]
  GI50: > 100 µM (inactive)
[6]
  GI50: > 100 µM (inactive)
[15]
  GI50: > 100 µM (inactive)
[7]
  GI50: > 100 µM (inactive)
[8]
  GI50: 33.5 µM (inactive)
[9]
  GI50: > 100 µM (inactive)
[10]
  GI50: > 100 µM (inactive)
[11]
  GI50: > 100 µM (inactive)
[12]
  GI50: > 100 µM (inactive)
[13]
  GI50: 98.2 µM (inactive)
[16]
  GI50: 32.8 µM (inactive)

## Cc1cccc(C)c1CO
[2]
  GI50: > 100 µM
[3]
  GI50: > 100 µM (inactive)
[14]
  GI50: > 100 µM (inactive)
[4]
  GI50: > 100 µM (inactive)
[5]
  GI50: > 100 µM (inactive)
[6]
  GI50: > 100 µM (inactive)
[15]
  GI50: > 100 µM (inactive)
[7]
  GI50: > 100 µM (inactive)
[8]
  GI50: > 100 µM (inactive)
[9]
  GI50: > 100 µM (inactive)
[10]
  GI50: > 100 µM (inactive)
[11]
  GI50: > 100 µM (inactive)
[12]
  GI50: > 100 µM (inactive)
[13]
  GI50: > 100 µM (inactive)
[16]
  GI50: > 100 µM (inactive)

## COc1cc(C2C(C(=O)Nc3ccccc3)=C(C)NC(C)=C2C(=O)Nc2ccccc2)ccc1O
[1]
  GI50: > 100 µM (inactive)
[2]
  GI50: 43.5 µM
[3]
  GI50: 13.6 µM (inactive)
[14]
  GI50: 22.4 µM (inactive)
[5]
  GI50: 49.9 µM (inactive)
[6]
  GI50: 29.1 µM (inactive)
[15]
  GI50: 24.2 µM (inactive)
[8]
  GI50: 37.8 µM (inactive)
[9]
  GI50: 97.1 µM (inactive)
[10]
  GI50: 18.7 µM (inactive)
[11]
  GI50: 41.2 µM (inactive)
[12]
  GI50: 39.5 µM (inactive)
[13]
  GI50: 83.4 µM (inactive)
[16]
  GI50: 34.5 µM (inactive)

## O=C1C=CC(=O)c2cc(Sc3ccccc3)c(=O)c(Sc3ccccc3)cc21
[1]
  GI50: 64.3 µM (inactive)
[2]
  GI50: 50.6 µM
[3]
  GI50: 85.3 µM (inactive)
[14]
  GI50: 10.6 µM (inactive)
[4]
  GI50: > 100 µM (inactive)
[5]
  GI50: > 100 µM (inactive)
[6]
  GI50: 53.3 µM (inactive)
[15]
  GI50: 73.3 µM (inactive)
[7]
  GI50: 17.3 µM (inactive)
[8]
  GI50: 88.5 µM (inactive)
[9]
  GI50: 37.8 µM (inactive)
[10]
  GI50: > 100 µM (inactive)
[12]
  GI50: > 100 µM (inactive)
[13]
  GI50: > 100 µM (inactive)
[16]
  GI50: 32.6 µM (inactive)

## CCCCCC/C(CC(=O)CCC(=O)NCCc1ccccc1)=N\Nc1ccc([N+](=O)[O-])cc1[N+](=O)[O-]
[1]
  GI50: > 100 µM (inactive)
[2]
  GI50: 69.3 µM
[14]
  GI50: 27.9 µM (inactive)
[4]
  GI50: > 100 µM (inactive)
[5]
  GI50: > 100 µM (inactive)
[15]
  GI50: 64.3 µM (inactive)
[7]
  GI50: 22.1 µM (inactive)
[8]
  GI50: > 100 µM (inactive)
[9]
  GI50: 61.9 µM (inactive)
[10]
  GI50: > 100 µM (inactive)
[11]
  GI50: > 100 µM (inactive)
[12]
  GI50: 82 µM (inactive)
[13]
  GI50: 38.7 µM (inactive)
[16]
  GI50: 36.7 µM (inactive)

## CN(C)c1ccc(-c2cc(O)c3cc4c(cc3n2)OCO4)cc1
[1]
  GI50: > 100 µM (inactive)
[2]
  GI50: > 100 µM
[3]
  GI50: 4.33 µM (inactive)
[14]
  GI50: > 100 µM (inactive)
[5]
  GI50: > 100 µM (inactive)
[6]
  GI50: > 100 µM (inactive)
[15]
  GI50: > 100 µM (inactive)
[7]
  GI50: > 100 µM (inactive)
[8]
  GI50: > 100 µM (inactive)
[9]
  GI50: > 100 µM (inactive)
[10]
  GI50: > 100 µM (inactive)
[11]
  GI50: > 100 µM (inactive)
[12]
  GI50: > 100 µM (inactive)
[13]
  GI50: > 100 µM (inactive)
[16]
  GI50: > 100 µM (inactive)

## C=CCC1(CC)C(=O)NC(=O)NC1=O [ETALLOBARBITAL]
[1]
  GI50: > 100 µM (inactive)
[2]
  GI50: > 100 µM
[3]
  GI50: > 100 µM (inactive)
[14]
  GI50: > 100 µM (inactive)
[5]
  GI50: > 10 µM (inactive)
[15]
  GI50: > 100 µM (inactive)
[7]
  GI50: > 100 µM (inactive)
[8]
  GI50: > 100 µM (inactive)
[9]
  GI50: > 100 µM (inactive)
[11]
  GI50: > 100 µM (inactive)
[12]
  GI50: > 100 µM (inactive)
[13]
  GI50: > 100 µM (inactive)
[16]
  GI50: > 100 µM (inactive)

Reference: ChEMBL document CHEMBL1201862, “PubChem BioAssay data set” (2004)
